From ChEMBL document CHEMBL4665641, “Lead optimization and efficacy evaluation of quinazoline-based BET family inhibitors for potential treatment of cancer and inflammatory diseases” (Bioorg Med Chem Lett, 2019)
Calls of active or inactive are those of the source. The rule behind the calls is not given here.

Legend:
Kasumi 1 [1] = test: Antitumor activity against human Kasumi-1 cells xenografted in CB17 SCID mouse assessed as inhibition of tumor growth at 10 mg/kg, po QD for 25 days; type: functional; conditions: Kasumi 1, po, 600 h, time 25 day, read-out: TGI
Kasumi 1 [2] = test: Antitumor activity against human Kasumi-1 cells xenografted in CB17 SCID mouse assessed as tumor volume at 40 mg/kg, po QD for 25 days (reference value: 2189 +/- 604 mm3); type: functional; conditions: time 25 day
Kasumi 1 [3] = test: Antitumor activity against human Kasumi-1 cells xenografted in CB17 SCID mouse assessed as tumor weight at 40 mg/kg, po QD for 25 days (reference value: 2.57 +/-0.27 g); type: functional; conditions: time 25 day
[4] = biological target: T1, Bromodomain-containing protein 4 (Homo sapiens, UniProt O60885); test: Competitive binding affinity to human partial length BRD4 (BD1,2) (N44 to E460 residues) expressed in bacterial expression system by BROMOscan assay
MV4-11 = test: Cytotoxicity against human MV4-11 cells assessed as inhibition of cell viability; type: functional, cell-based
[5] = Half life in CD-1 mouse at 2 mg/kg, iv; type: ADME, organism-based; conditions: in vivo
[6] = Cmax in CD-1 mouse at 10 mg/kg, po; type: ADME, organism-based; design: route oral, dose 10 mg/kg; conditions: CD-1, mouse, in vivo, read-out: Cmax
[7] = Volume of distribution at steady state in CD-1 mouse at 2 mg/kg, iv; type: ADME, organism-based; conditions: in vivo, read-out: Vdss
[8] = Stability in rat liver microsomes assessed as half life; type: ADME, Microsome
[9] = Stability in human liver microsomes assessed as half life; type: ADME, Microsome
[10] = Toxicity in CD1 mouse assessed as weight loss at 50 to 100 mg/kg, po administered once daily for 5 days and observed for 5 days after last dose; type: organism-based; conditions: in vivo, 120 h, dose 50-100 mg/kg, time 5 day
[11] = Toxicity in CD1 mouse assessed as clinical abnormalities at 50 to 100 mg/kg, po administered once daily for 5 days and observed for 5 days after last dose; type: organism-based; conditions: in vivo, 120 h, dose 50-100 mg/kg, time 5 day
CYP3A4 [12] = biological target: T2, CYP3A4 (Homo sapiens, UniProt P08684); test: Inhibition of human CYP3A4 at 10 uM using midazolam as substrate relative to control; type: ADME; conditions: probe midazolam
CYP3A4 [13] = biological target: T2, CYP3A4; test: Inhibition of human CYP3A4 at 10 uM using testosterone as substrate relative to control; type: ADME; conditions: probe testosterone
CYP2D6 = CYP2D6 (Homo sapiens, UniProt P10635); test: Inhibition of human CYP2D6 at 10 uM relative to control; type: ADME
[14] = biological target: Voltage-gated inwardly rectifying potassium channel KCNH2 (Homo sapiens, UniProt Q12809); test: Inhibition of human ERG by manual patch clamp assay
[15] = Toxicity in CB17 SCID mouse xenografted with human Kasumi-1 cells assessed body weight loss at 10 to 40 mg/kg, po QD for 25 days; type: organism-based; conditions: in vivo, 600 h, dose 10-40 mg/kg, time 25 day
Mus musculus [16] = test: Antiarthritic activity in collagen/complete freund's adjuvant-induced arthritis DBA/1 mouse model assessed as reduction in arthritis severity score at 50 mg/kg, po administered via gavage once daily starting from day 21 to day 41 post collagen/CFA challenge and measured on day 0, 18, 21 followed by three times weekly up to 42 days; type: functional, organism-based; conditions: time 21.0 day
Mus musculus [17] = test: Antiarthritic activity in collagen/complete freund's adjuvant-induced arthritis DBA/1 mouse model assessed as hind paw histological score at 50 mg/kg, po administered via gavage starting from day 21 to day 41 post collagen/CFA challenge and measured on day 42 by hematoxylin-eosin staining based assay (reference value: 2.66 +/- 0.44 au); type: functional; conditions: time 21 day
Mus musculus [18] = test: (§1) Antiinflammatory activity in collagen/complete freund's adjuvant-induced arthritis DBA/1 mouse model assessed as IL-6 level in rear right paw at 50 mg/kg, po administered via gavage starting from day 21 to day 41 post collagen/CFA challenge and measured on day 42 measured per mg protein (reference value: 180.7 pg); type: functional; conditions: time 21 day
Mus musculus [19] = test: as §1, with “IP-10” for “IL-6”, “6.23” for “180.7”; type: functional; conditions: time 21 day
Mus musculus [20] = test: as §1, with “MCP-1” for “IL-6”, “126.24” for “180.7”; type: functional; conditions: time 21 day
Mus musculus [21] = test: as §1, with “TNF-alpha” for “IL-6”, “0.88” for “180.7”; type: functional; conditions: time 21 day
Kasumi 1 [22] = test: Antitumor activity against human Kasumi-1 cells xenografted in CB17 SCID mouse assessed as tumor volume at 10 mg/kg, po QD for 29 days (reference value: 1734 +/- 220 mm3); type: functional; conditions: time 29 day
Kasumi 1 [23] = test: Antiproliferative activity against human Kasumi-1 cells after 72 hrs by Celltiter-Glo assay; type: functional, cell-based; conditions: Kasumi 1, 72 h
[24] = Apparent permeability across basolateral to apical side in human Caco2 cells; type: ADME, cell-based; conditions: caco-2
Kasumi 1 [25] = test: Antitumor activity against human Kasumi-1 cells xenografted in CB17 SCID mouse assessed as tumor weight at 10 mg/kg, po QD for 29 days (reference value: 2.1+/- 0.3 g); type: functional; conditions: time 29 day
Kasumi 1 [26] = test: Antitumor activity against human Kasumi-1 cells xenografted in CB17 SCID mouse assessed as inhibition of tumor growth at 10 mg/kg, po QD for 29 days; type: functional; conditions: Kasumi 1, po, 696 h, time 29 day, read-out: TGI
Mus musculus [27] = test: as §1, with “M-CSF” for “IL-6”, “3.49” for “180.7”; type: functional; conditions: time 21 day
Mus musculus [28] = test: as §1, with “VEGF” for “IL-6”, “0.98” for “180.7”; type: functional; conditions: time 21 day
[29] = biological target: T1, Bromodomain-containing protein 4; test: Inhibition of human full-length recombinant N-terminal His-tagged BRD4 (2 to 1362 residues) expressed in Sf9 cells using histone H4 peptide containing acetylated lysine residues as substrate preincubated with enzyme for 30 mins followed by incubation with substrate for 30 mins by Alphascreen assay […]
[30] = biological target: T3, Bromodomain-containing protein 2 (Homo sapiens, UniProt P25440); test: Binding affinity to human partial length BRD2 (BD1) (K71 to N194 residues) expressed in bacterial expression system by BROMOscan assay
[31] = biological target: T3, Bromodomain-containing protein 2; test: Binding affinity to human partial length BRD2 (BD2) (E348 to D455 residues) expressed in bacterial expression system by BROMOscan assay
[32] = biological target: T4, Bromodomain-containing protein 3 (Homo sapiens, UniProt Q15059); test: Binding affinity to human partial length BRD3 (BD1) (P24 to E144 residues) expressed in bacterial expression system by BROMOscan assay
[33] = biological target: T4, Bromodomain-containing protein 3; test: Binding affinity to human partial length BRD3 (BD1,2) (P24 to P416 residues) expressed in bacterial expression system by BROMOscan assay
[34] = biological target: T4, Bromodomain-containing protein 3; test: Binding affinity to human partial length BRD3 (BD2) (G306 to P416 residues) expressed in bacterial expression system by BROMOscan assay
[35] = biological target: T5, Bromodomain testis-specific protein (Homo sapiens, UniProt Q58F21); test: Binding affinity to human partial length BRDT (BD1) (N21 to E137 residues) expressed in bacterial expression system by BROMOscan assay
[36] = biological target: T5, Bromodomain testis-specific protein; test: Binding affinity to human partial length BRDT (BD1,2) (N21 to E382 residues) expressed in bacterial expression system by BROMOscan assay

T4 sequence (Q15059 whole entry, the tested form may be a part): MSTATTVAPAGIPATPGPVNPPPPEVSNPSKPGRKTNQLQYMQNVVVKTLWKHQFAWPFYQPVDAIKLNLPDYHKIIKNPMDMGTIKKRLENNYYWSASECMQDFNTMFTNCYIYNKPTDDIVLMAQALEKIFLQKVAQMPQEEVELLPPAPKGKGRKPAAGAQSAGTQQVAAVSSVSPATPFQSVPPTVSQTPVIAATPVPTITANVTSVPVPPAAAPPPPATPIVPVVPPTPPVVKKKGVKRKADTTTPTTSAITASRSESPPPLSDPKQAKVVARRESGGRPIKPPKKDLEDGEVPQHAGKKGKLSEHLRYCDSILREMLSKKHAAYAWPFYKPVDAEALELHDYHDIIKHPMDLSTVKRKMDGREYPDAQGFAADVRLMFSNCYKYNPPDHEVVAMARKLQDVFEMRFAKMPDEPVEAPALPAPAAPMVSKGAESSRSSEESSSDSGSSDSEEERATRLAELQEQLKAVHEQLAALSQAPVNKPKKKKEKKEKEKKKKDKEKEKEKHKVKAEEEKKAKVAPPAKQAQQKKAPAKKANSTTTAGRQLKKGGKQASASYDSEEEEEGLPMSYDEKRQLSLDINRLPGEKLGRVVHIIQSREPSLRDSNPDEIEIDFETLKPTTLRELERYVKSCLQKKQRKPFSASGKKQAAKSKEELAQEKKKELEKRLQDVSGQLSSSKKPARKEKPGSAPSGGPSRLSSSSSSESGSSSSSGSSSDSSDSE
T2 sequence (P08684 whole entry): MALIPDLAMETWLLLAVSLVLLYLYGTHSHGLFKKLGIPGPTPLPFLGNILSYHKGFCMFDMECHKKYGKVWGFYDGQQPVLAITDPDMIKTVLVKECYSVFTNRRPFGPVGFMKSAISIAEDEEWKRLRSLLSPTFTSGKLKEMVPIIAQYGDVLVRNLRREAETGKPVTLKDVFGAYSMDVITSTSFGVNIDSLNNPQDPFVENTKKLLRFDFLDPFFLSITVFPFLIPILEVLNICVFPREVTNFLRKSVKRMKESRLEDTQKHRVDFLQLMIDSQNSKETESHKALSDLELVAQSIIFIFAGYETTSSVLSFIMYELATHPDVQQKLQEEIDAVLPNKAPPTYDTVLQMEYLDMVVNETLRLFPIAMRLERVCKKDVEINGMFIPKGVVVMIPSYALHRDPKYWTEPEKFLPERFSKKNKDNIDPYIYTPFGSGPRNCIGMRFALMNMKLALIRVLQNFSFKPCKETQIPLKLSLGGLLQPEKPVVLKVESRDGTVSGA
T3 sequence (P25440 whole entry, the tested form may be a part): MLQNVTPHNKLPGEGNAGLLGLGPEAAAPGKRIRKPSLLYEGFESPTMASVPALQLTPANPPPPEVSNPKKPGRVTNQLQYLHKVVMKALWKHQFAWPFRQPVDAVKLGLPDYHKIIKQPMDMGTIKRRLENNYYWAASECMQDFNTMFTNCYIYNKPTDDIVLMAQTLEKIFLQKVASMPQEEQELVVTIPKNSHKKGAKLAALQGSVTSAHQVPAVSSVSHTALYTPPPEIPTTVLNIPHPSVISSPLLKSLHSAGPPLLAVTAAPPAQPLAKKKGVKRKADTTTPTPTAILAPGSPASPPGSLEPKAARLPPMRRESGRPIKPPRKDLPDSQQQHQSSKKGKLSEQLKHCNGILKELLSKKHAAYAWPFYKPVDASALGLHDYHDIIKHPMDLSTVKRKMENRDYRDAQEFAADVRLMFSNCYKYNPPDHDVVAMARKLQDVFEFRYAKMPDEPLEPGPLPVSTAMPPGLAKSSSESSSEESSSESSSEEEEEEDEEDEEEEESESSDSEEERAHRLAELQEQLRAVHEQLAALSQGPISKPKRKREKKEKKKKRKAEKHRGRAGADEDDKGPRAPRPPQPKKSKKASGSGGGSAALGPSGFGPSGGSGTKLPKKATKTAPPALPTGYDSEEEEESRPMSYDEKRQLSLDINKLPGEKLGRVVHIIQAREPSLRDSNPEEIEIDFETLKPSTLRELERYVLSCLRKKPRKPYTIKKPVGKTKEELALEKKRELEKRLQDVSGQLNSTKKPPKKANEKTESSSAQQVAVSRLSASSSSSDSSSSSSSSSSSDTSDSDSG
Sequence of Voltage-gated inwardly rectifying potassium channel KCNH2 (Q12809 whole entry): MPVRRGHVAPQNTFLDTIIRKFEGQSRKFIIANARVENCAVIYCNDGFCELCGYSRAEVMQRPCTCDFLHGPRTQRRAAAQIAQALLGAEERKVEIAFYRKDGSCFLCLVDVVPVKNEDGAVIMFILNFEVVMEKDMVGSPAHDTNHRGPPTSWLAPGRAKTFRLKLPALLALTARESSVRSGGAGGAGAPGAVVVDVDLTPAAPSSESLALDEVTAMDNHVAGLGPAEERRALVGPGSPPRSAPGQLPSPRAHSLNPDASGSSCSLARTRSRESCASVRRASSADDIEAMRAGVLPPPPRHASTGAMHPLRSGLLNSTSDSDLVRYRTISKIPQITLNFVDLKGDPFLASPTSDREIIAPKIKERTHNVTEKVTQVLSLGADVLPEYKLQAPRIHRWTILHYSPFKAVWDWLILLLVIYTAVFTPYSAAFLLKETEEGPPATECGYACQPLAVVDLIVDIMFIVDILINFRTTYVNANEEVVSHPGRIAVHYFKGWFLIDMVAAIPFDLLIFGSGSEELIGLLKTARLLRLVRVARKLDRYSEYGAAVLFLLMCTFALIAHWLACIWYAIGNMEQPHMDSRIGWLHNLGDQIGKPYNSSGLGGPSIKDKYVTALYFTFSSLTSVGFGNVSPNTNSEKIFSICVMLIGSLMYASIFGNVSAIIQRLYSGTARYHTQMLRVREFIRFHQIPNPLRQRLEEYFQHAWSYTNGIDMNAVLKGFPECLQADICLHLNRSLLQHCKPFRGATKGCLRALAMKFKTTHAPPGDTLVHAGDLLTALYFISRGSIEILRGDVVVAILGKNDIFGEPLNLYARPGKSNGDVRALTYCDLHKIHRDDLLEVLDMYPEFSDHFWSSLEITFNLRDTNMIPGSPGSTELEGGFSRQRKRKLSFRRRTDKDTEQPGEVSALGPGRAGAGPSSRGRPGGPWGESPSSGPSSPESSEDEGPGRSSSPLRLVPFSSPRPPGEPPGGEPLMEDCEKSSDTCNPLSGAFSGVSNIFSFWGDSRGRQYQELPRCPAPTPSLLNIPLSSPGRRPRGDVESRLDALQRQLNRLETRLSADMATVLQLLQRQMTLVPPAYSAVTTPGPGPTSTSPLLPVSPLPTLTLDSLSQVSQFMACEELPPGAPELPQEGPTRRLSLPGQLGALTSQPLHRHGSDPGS
Sequence of CYP2D6 (P10635 whole entry): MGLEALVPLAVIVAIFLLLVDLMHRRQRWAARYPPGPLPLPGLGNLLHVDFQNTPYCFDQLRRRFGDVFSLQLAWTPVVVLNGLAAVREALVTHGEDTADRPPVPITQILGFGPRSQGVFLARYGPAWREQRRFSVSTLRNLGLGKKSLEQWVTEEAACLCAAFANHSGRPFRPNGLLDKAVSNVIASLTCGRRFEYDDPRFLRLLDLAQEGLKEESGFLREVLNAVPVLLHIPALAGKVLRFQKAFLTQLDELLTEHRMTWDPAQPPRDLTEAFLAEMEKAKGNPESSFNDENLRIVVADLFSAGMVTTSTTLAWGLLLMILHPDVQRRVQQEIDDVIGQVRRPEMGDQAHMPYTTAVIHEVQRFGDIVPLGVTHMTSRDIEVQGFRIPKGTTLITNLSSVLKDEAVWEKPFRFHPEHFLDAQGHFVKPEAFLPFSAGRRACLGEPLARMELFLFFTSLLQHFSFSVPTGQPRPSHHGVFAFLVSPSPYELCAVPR

`Cc1noc(C)c1-c1ccc2nc(-c3cnn(CC(C)(C)O)c3)nc(N3CCOC[C@@H]3c3ccccc3)c2c1` showed an inhibition in vivo at 10 mg/kg (Kasumi 1 [1]) of 41.4%, an Activity (Kasumi 1 [2]) of 66 mm3 and an Activity (Kasumi 1 [3]) of 0.04 g. It also gave a Kd [4] of 70 nM, an IC50 (MV4-11) of 940 nM and a half-life [5] of 1.7 h. The Cmax [6] was 2160 ng/mL, the Vd [7] was 1.04 L/kg and the half-life [8] was 0.7 h. For the same molecule, the half-life [9] was 1.7 h, the Activity [10] was “Non-Toxic” and the Activity [11] was “Non-Toxic”. It also gave an inhibition at 10 µM (CYP3A4 [12]) of under 50%, an inhibition at 10 µM (CYP3A4 [13]) of under 50% and an inhibition at 10 µM (CYP2D6) of under 50%. The IC50 [14] was 6500 nM, the Activity [15] was “Non-Toxic” and the Activity (Mus musculus [16]) was “Active”. The Activity (Mus musculus [17]) was 0.5 a.u, the Activity (Mus musculus [18]) was 21.62 pg and the Activity (Mus musculus [19]) was 0.92 pg. It also gave an Activity (Mus musculus [20]) of 8.48 pg, an Activity (Mus musculus [21]) of 0.46 pg and an Activity (Kasumi 1 [22]) of 1036 mm3. For the same molecule, the IC50 (Kasumi 1 [23]) was 220 nM, the Papp [24] was 18.4 10^-6 cm/s and the Activity (Kasumi 1 [25]) was 1.22 g. For the same molecule, the inhibition in vivo at 10 mg/kg (Kasumi 1 [26]) was 41.9%, the Activity (Mus musculus [27]) was 2.89 pg and the Activity (Mus musculus [28]) was 1.6 pg. For the same molecule, the IC50 [29] was 14 nM, the Kd [30] was 45 nM and the Kd [31] was 200 nM. It also gave a Kd [32] of 11 nM, a Kd [33] of 29 nM and a Kd [34] of 44 nM. It also gave a Kd [35] of 76 nM and a Kd [36] of 170 nM.
